Experimental data as given in ChEMBL document CHEMBL1201862, “PubChem BioAssay data set” (2004).
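Five concentrations, 48 hours, 96-well plates. Abbreviation: GI50, concentration required for 50% inhibition of growth.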 Active and inactive are the calls of the source. Cut-off read from the data, not from the text of the source: active = GI50 up to about 1.1 µM and inactive = higher.

What was measured:
Assay in all cases: growth of human tumour cells (NCI), 48 h
[1] = tested on: MDA-MB-435
[2] = tested on: IGROV-1
[3] = tested on: A549
[4] = tested on: EKVX
[5] = tested on: SF-295
[6] = tested on: OVCAR-8
[7] = tested on: 786-0
[8] = tested on: T47D
[9] = tested on: UACC-62
[10] = tested on: SNB-19
[11] = tested on: COLO 205
[12] = tested on: Malme-3M
[13] = tested on: SK-MEL-5
[14] = tested on: NCI-H226
[15] = tested on: UACC-257
[16] = tested on: NCI/ADR-RES
[17] = tested on: K562
[18] = tested on: OVCAR-3
[19] = tested on: SF-539
[20] = tested on: SN12C
[21] = tested on: DU-145
[22] = tested on: MDA-MB-231
[23] = tested on: NCI-H522
[24] = tested on: SK-MEL-2
[25] = tested on: M14
[26] = tested on: KM12
[27] = tested on: HCT-116
[28] = tested on: CCRF-CEM
[29] = tested on: LOX IMVI
[30] = tested on: NCI-H460
[31] = tested on: SK-MEL-28
[32] = tested on: MOLT-4
[33] = tested on: HOP-62
[34] = tested on: HT-29
[35] = tested on: HOP-92
[36] = tested on: SNB-75
[37] = tested on: TK-10
[38] = tested on: HL-60
[39] = tested on: OVCAR-5
[40] = tested on: NCI-H23
[41] = tested on: SK-OV-3
[42] = tested on: SR
[43] = tested on: SW-620
[44] = tested on: PC-3
[45] = tested on: ACHN
[46] = tested on: HCC 2998
[47] = tested on: Hs-578T
[48] = tested on: HCT-15
[49] = tested on: SF-268
[50] = tested on: U-251
[51] = tested on: MDA-N
[52] = tested on: RPMI-8226
[53] = tested on: UO-31
[54] = tested on: MCF7
[55] = tested on: RXF 393
[56] = tested on: A498
[57] = tested on: CAKI-1

Measured: GI50

COc1cc2c3c(c1Oc1nnnn1-c1ccccc1)-c1c(ccc4c1OCO4)C[C@H]3N(C)CC2
21.6 µM: [48]
inactive: [1] 20.2 µM | [2] 41.6 µM | [3] 45.6 µM | [4] 32.4 µM | [5] 32.2 µM | [6] 47.8 µM | [7] 17.5 µM | [8] 33.7 µM | [9] 14.3 µM | [10] 65.5 µM | [11] 32.2 µM | [12] 18.2 µM | [13] 29.5 µM | [14] > 100 µM | [15] 20.5 µM | [16] 35.7 µM | [17] 29.6 µM | [18] 37.4 µM | [19] > 100 µM | [20] 32.4 µM | [21] 71 µM | [22] 41.8 µM | [23] 36.1 µM | [24] 71.9 µM | [25] 18.7 µM | [26] 32.1 µM | [27] 31.7 µM | [28] 24.5 µM | [29] 29 µM | [30] 36.9 µM | [31] 17.8 µM | [32] 35.7 µM | [33] 60.5 µM | [34] 18.5 µM | [35] 24.4 µM | [36] 22.6 µM | [37] 75.5 µM | [38] 15.1 µM | [39] > 100 µM | [40] 36.6 µM | [41] 72.9 µM | [42] 46.7 µM | [43] 80.7 µM | [44] 38.6 µM | [45] 25.7 µM | [46] 20.7 µM | [47] 28.4 µM | [49] 48.9 µM | [50] 69 µM | [51] 21.9 µM | [52] 32.5 µM | [53] 78.9 µM

CC(=O)CC1(C)OC(N)=C(C#N)C1(C#N)C#N (centres undefined)
inactive: [1] > 100 µM | [2] > 100 µM | [3] > 100 µM | [4] > 100 µM | [5] > 100 µM | [6] > 100 µM | [7] > 100 µM | [8] > 100 µM | [9] > 100 µM | [54] > 100 µM | [10] > 100 µM | [11] 45.9 µM | [12] 80 µM | [13] 42.1 µM | [14] > 100 µM | [15] > 100 µM | [16] > 100 µM | [19] 86.1 µM | [55] > 100 µM | [20] > 100 µM | [21] > 100 µM | [22] > 100 µM | [23] 48.9 µM | [24] > 100 µM | [25] > 100 µM | [26] > 100 µM | [27] 71.6 µM | [28] 44.7 µM | [29] 81.1 µM | [31] > 100 µM | [33] 55.1 µM | [34] 88.9 µM | [35] 74.6 µM | [36] 47 µM | [37] > 100 µM | [39] > 100 µM | [40] > 100 µM | [41] > 100 µM | [56] > 100 µM | [43] > 100 µM | [57] 59.4 µM | [44] > 100 µM | [45] > 100 µM | [46] > 100 µM | [47] > 100 µM | [49] > 100 µM | [50] > 100 µM | [51] > 100 µM | [52] > 100 µM | [53] > 100 µM
43.9 µM: [48]
